Measurements from PMC5327470, “Discovery and Optimization of Novel 5-Indolyl-7-arylimidazo[1,2-a]pyridine-8-carbonitrile Derivatives as Potent Antitubulin Agents Targeting Colchicine-binding Site” (Scientific Reports, 2017).

Key:
[1] = system: SMMC-7721 (human liver cancer); assay: MTT antiproliferative assay, SMMC-7721; type: cell-based; details: 72 h, mean ± SD
Protocol: Data represent the mean values ± standard deviation (SD) of independent experiments performed in triplicate.
All of the cells were purchased from the American Type Culture Collection (ATCC, Manassas, VA).
The antiproliferative activities in vitro of Crolibulin and all the target compounds were determined by an MTT assay. Briefly, cells were seeded into 96-well plates at a density of 1–3 × 10^4/well (depends on the cell growth rate). 24 h later, triplicate wells were treated with media and the agents. […] After 4 h of incubation, the medium with MTT was removed, and […] of DMSO was added to each well. The plates were gently agitated until the purple formazan crystals were dissolved, and the OD490 was determinedusing a microplate reader (MK3, Thermo, Germany). The data were calculated and plotted as the percent viability compared to the control.

[2] = system: HT-29 (human colon cancer); assay: MTT antiproliferative assay, HT-29; type: cell-based; details: for IC50: Homo sapiens, HT-29, MTT, 72 h, mean ± SD, read-out: IC50 (μM) ±SD HT29
Protocol: (§1) To evaluate the antiproliferative activity, all synthesized derivatives (5a–5v and 7a–7h) were investigated for their activity in vitro against a panel of cancer cell lines including HT-29 (human colon cancer), H460 (human lung cancer), A549 (human lung carcinoma), MKN-45 (human gastric cancer) and SMMC-7721 (human liver cancer) by MTT assay. CA-4 and Crolibulin were served as positive control, and the results expressed as half-maximal inhibitory concentration (IC50). IC50 values are the concentrations that cause 50% inhibition of cancer cell growth (μM). Data represent the mean values ± standard deviation (SD) of independent experiments performed in triplicate.
(§2) Cell lines and culture conditions.The human colon carcinoma cell line HT-29, the human pulmonary carcinoma cell line A549, the human gastric carcinoma cell line MKN-45, the human breast cancer cell line MDA-MB-231 and human heptocarcinoma cellline SMMC-7721were cultured in RPMI-1640 mediumcontaining 10% FBS, 100 U/mL streptomycin and 100 U/mL penicillinat 37 °C in humidified atmosphere with 5% CO2. All of the cells were purchased from the American Type Culture Collection (ATCC, Manassas, VA).
(§3) The antiproliferative activities in vitro of Crolibulin and all the target compounds were determined by an MTT assay. Briefly, cells were seeded into 96-well plates at a density of 1–3 × 10^4/well (depends on the cell growth rate). 24 h later, triplicate wells were treated with media and the agents. After 72 h ofincubation at 37 °C in 5% CO2, the drug containing medium wasremoved and replaced by […] of fresh medium with 5 mg/mLMTT solution. After 4 h of incubation, the medium with MTT was removed, and […] of DMSO was added to each well. The plates were gently agitated until the purple formazan crystals were dissolved, and the OD490 was determinedusing a microplate reader (MK3, Thermo, Germany). The data were calculated and plotted as the percent viability compared to the control. The 50% inhibitory concentration (IC50) was defined as theconcentration that reduced the absorbance of the untreated wells by 50% of the vehicle in the MTT assay.

H460 (human lung cancer) = assay: MTT antiproliferative assay, H460; type: cell-based; details: Homo sapiens, MTT, 72 h, mean ± SD
Protocol: as §1, §3

[3] = system: A549 (human lung carcinoma); assay: MTT antiproliferative assay, A549; type: cell-based; details: 72 h, mean ± SD
Protocol: as §1, §2, §3

[4] = system: MKN-45 (human gastric cancer); assay: MTT antiproliferative assay, MKN-45; type: cell-based; details: 72 h, mean ± SD, read-out: IC50 (μM) ±SD MKN45
Protocol: as §1, §2, §3

| SMILES | IC50 [1] [µM] | IC50 [2] [µM] | IC50 (H460 (human lung cancer); NCI-H460, 72 h) [µM] | IC50 [3] [µM] | IC50 [4] [µM] | melting point [°C] | IC50 (H460 (human lung cancer); NCI-H460) [µM] | fold more active than CA-4 on HT-29 ([2]; ratio of IC50 values) [fold] | fold more active than Crolibulin on HT-29 cell ([2]; ratio of IC50 values) |
| --- | --- | --- | --- | --- | --- | --- | --- | --- | --- |
| N#Cc1c(-c2cccc(Br)c2)cc(-c2c[nH]c3ccccc23)n2ccnc12 [5g, 7-(3-bromophenyl)-5-(1H-indol-3-yl)imidazo[1,2-a]pyridine-8-carbonitrile] | 79.2 ± 6.87 | > 100 | 6.89 ± 0.67 | > 100 | 64 ± 7.14 | 321.9 to 324.4 | – | – | – |
| N#Cc1c(-c2ccc(O)c(O)c2O)cc(-c2c[nH]c3ccccc23)n2ccnc12 [5p, 5-(1H-indol-3-yl)-7-(2,3,4-trihydroxyphenyl)imidazo[1,2-a]pyridine-8-carbonitrile] | 10.4 ± 1.64 | 1.48 ± 0.27 | 0.25 ± 0.031 | 1.18 ± 0.21 | 9.67 ± 0.73 | 297.8 to 301.4 | – | – | – |
| COc1cc([C@H]2C(C#N)=C(N)Oc3c2ccc(N)c3N)cc(Br)c1OC [Crolibulin, reference compound] | – | 0.52 ± 0.02 | – | – | 0.17 ± 0.03 | – | 0.03 ± 0.007 | – | – |
| N#Cc1c(-c2ccc(Br)cc2)cc(-c2c[nH]c3ccc(Br)cc23)n2ccnc12 [5u, 5-(5-bromo-1H-indol-3-yl)-7-(4-bromophenyl)imidazo[1,2-a]pyridine-8-carbonitrile] | 79.3 ± 5.14 | 0.73 ± 0.09 | 1.93 ± 0.33 | 21.4 ± 2.58 | 38.1 ± 4.42 | 317.2 to 321.8 | – | – | – |
| N#Cc1c(-c2ccc(F)cc2Cl)cc(-c2c[nH]c3ccccc23)n2cc(CN3CCCC3)nc12 [7g, 7-(2-chloro-4-fluorophenyl)-5-(1H-indol-3-yl)-2-(pyrrolidin-1-ylmethyl)imidazo[1,2-a]pyridine-8-carbonitrile] | 42.6 ± 4.12 | 0.19 ± 0.02 | 1.32 ± 0.12 | 8.79 ± 0.62 | 19.2 ± 1.35 | 195 to 199.7 | – | – | – |
| N#Cc1c(-c2ccc(F)c(F)c2)cc(-c2c[nH]c3ccccc23)n2ccnc12 [5j, 7-(3,4-difluorophenyl)-5-(1H-indol-3-yl)imidazo[1,2-a]pyridine-8-carbonitrile] | 18.5 ± 2.76 | 0.03 ± 0.009 | 0.076 ± 0.01 | – | 1.43 ± 0.12 | 341.6 to 343.8 | – | – | – |
| COc1cc(-c2cc(-c3c[nH]c4ccccc34)n3ccnc3c2C#N)c(Br)cc1O [5n, 7-(2-bromo-4-hydroxy-5-methoxyphenyl)-5-(1H-indol-3-yl)imidazo[1,2-a]pyridine-8-carbonitrile] | 97.2 ± 6.54 | 1.16 ± 0.13 | 9.61 ± 0.74 | 80.2 ± 9.68 | 14.5 ± 2.43 | 327.7 to 330 | – | – | – |
| N#Cc1c(-c2ccccc2F)cc(-c2c[nH]c3ccc(Br)cc23)n2ccnc12 [5s, 5-(5-bromo-1H-indol-3-yl)-7-(2-fluorophenyl)imidazo[1,2-a]pyridine-8-carbonitrile] | > 100 | 2.86 ± 0.38 | 17.2 ± 1.34 | 67.3 ± 4.59 | 31.2 ± 5.79 | 301.7 to 304.6 | – | – | – |
| CNCc1cn2c(-c3c[nH]c4ccccc34)cc(-c3ccc(F)cc3Cl)c(C#N)c2n1 [7a, 7-(2-chloro-4-fluorophenyl)-5-(1H-indol-3-yl)-2-((methylamino)methyl)imidazo[1,2-a]pyridine-8-carbonitrile] | 27 ± 3.06 | 0.04 ± 0.001 | 1.29 ± 0.21 | 5.34 ± 0.67 | 12.2 ± 1.89 | 219.5 to 223.5 | – | – | – |
| CCNCc1cn2c(-c3c[nH]c4ccccc34)cc(-c3ccc(F)cc3Cl)c(C#N)c2n1 [7b, 7-(2-chloro-4-fluorophenyl)-2-((ethylamino)methyl)-5-(1H-indol-3-yl)imidazo[1,2-a]pyridine-8-carbonitrile] | 21.6 ± 3.16 | 0.03 ± 0.003 | 0.96 ± 0.06 | 3.54 ± 0.41 | 20.5 ± 2.32 | 170.7 to 172.6 | – | ~1.7 | about 17 fold |
| N#Cc1c(-c2ccc(F)cc2Cl)cc(-c2c[nH]c3ccc(Br)cc23)n2ccnc12 [5v, 5-(5-bromo-1H-indol-3-yl)-7-(2-chloro-4-fluorophenyl)imidazo[1,2-a]pyridine-8-carbonitrile] | 56.3 ± 4.87 | 0.26 ± 0.03 | 2.13 ± 0.24 | 3.57 ± 0.23 | 7.35 ± 0.54 | 320.8 to 323.2 | – | – | – |
| N#Cc1c(-c2cc(Br)c(O)c(Br)c2)cc(-c2c[nH]c3ccccc23)n2ccnc12 [5m, 7-(3,5-dibromo-4-hydroxyphenyl)-5-(1H-indol-3-yl)imidazo[1,2-a]pyridine-8-carbonitrile] | 20.5 ± 3.53 | 2.13 ± 0.12 | 1.15 ± 0.13 | 2.45 ± 0.37 | 18.3 ± 2.13 | 290.5 to 294.2 | – | – | – |
| N#Cc1c(-c2ccccc2)cc(-c2c[nH]c3ccc(Br)cc23)n2ccnc12 [5r, 5-(5-bromo-1H-indol-3-yl)-7-phenylimidazo[1,2-a]pyridine-8-carbonitrile] | > 100 | 1.74 ± 0.14 | 11.4 ± 1.68 | 67.3 ± 7.43 | 7.38 ± 0.63 | 337.9 to 342.4 | – | – | – |
| N#Cc1c(-c2ccc(O)c(Br)c2)cc(-c2c[nH]c3ccccc23)n2ccnc12 [5l, 7-(3-bromo-4-hydroxyphenyl)-5-(1H-indol-3-yl)imidazo[1,2-a]pyridine-8-carbonitrile] | 80.2 ± 7.54 | 0.92 ± 0.08 | 1.07 ± 0.12 | > 100 | 10.7 ± 1.85 | 309.2 to 312.3 | – | – | – |
| COc1cc(OC)c(OC)c(-c2cc(-c3c[nH]c4ccccc34)n3ccnc3c2C#N)c1 [5q, 5-(1H-indol-3-yl)-7-(2,3,5-trimethoxyphenyl)imidazo[1,2-a]pyridine-8-carbonitrile] | 27.4 ± 2.32 | 0.46 ± 0.03 | – | 1.75 ± 0.13 | 1.74 ± 0.15 | 302.7 to 304.8 | – | – | – |
| COc1ccc(-c2cc(-c3c[nH]c4ccccc34)n3ccnc3c2C#N)cc1 [5d, 5-(1H-indol-3-yl)-7-(4-methoxyphenyl)imidazo[1,2-a]pyridine-8-carbonitrile] | 71.5 ± 9.43 | 0.43 ± 0.03 | 9.61 ± 0.76 | 15.5 ± 2.13 | 1.64 ± 0.07 | 294.7 to 295.5 | – | – | – |
| N#Cc1c(-c2ccccc2Cl)cc(-c2c[nH]c3ccc(Br)cc23)n2ccnc12 [5t, 5-(5-bromo-1H-indol-3-yl)-7-(2-chlorophenyl)imidazo[1,2-a]pyridine-8-carbonitrile] | > 100 | 0.58 ± 0.06 | 80.7 ± 6.98 | > 100 | 56.8 ± 4.29 | 302.2 to 306.8 | – | – | – |
